# Measurements from patent US20250163104A1, “MACROCYCLIC IMMUNOMODULATORS” (priority 2021, published 2025).
# Where a SMILES comes first, the peptide text is derived from it. Bridges are numbered along the chain shown (N, C = ends). [ ]: non-standard residue; d: D form. The star is where a group is joined. ξ: configuration not given here. Phe(3-CF3) = N[C@@H](Cc1cccc(C(F)(F)F)c1)C(=O)O; Phe(4-COOH) = N[C@@H](Cc1ccc(C(=O)O)cc1)C(=O)O; Bip = N[C@@H](Cc1ccc(-c2ccccc2)cc1)C(=O)O; Phe(3-Me) = Cc1cccc(C[C@H](N)C(=O)O)c1; Val(3-OH) = CC(C)(O)[C@H](N)C(=O)O; 4Pal = N[C@@H](Cc1ccncc1)C(=O)O; Cha = N[C@@H](CC1CCCCC1)C(=O)O; Cit = NC(=O)NCCC[C@H](N)C(=O)O; Ile(3ξ) = CCC(C)[C@H](N)C(=O)O; dCha = N[C@H](CC1CCCCC1)C(=O)O; Thr(3ξ) = CC(O)[C@H](N)C(=O)O; Tle = CC(C)(C)[C@H](N)C(=O)O; dDab = NCC[C@@H](N)C(=O)O; Carboxymethyl = O=C(O)C*; Nle = CCCC[C@H](N)C(=O)O; Orn = NCCC[C@H](N)C(=O)O; Pra = C#CC[C@H](N)C(=O)O; Dab = NCC[C@H](N)C(=O)O; Dap = NC[C@H](N)C(=O)O
# Molecular target: T1, human PD-1 / PD-L1-Ig binding on Jurkat cell line over-expressing human PD-1 (Jurkat-PD-1) (Homo sapiens, UniProt Q15116)
# T1 construct: expressed in transfected cells; host or cells: Jurkat
# Test: Jurkat-PD-1 Cell Binding High-Content Screening Assay (CBA)
# Type: cell-based
# Conditions: Jurkat-PD-1 cells, PE-labeled PD-L1-Ig 20 nM final; read-out: Jurkat HPD1_PDL1 IC50
# Method in brief: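 PE-PD-L1-Ig 20 nM final; cells in DMEM/10% FCS; cpd pre-incubation 2 h, 37° C; ligand 1 h; PFA fix + Hoechst 33342; high-content imaging read-out.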
# T1 sequence (Q15116 25-288): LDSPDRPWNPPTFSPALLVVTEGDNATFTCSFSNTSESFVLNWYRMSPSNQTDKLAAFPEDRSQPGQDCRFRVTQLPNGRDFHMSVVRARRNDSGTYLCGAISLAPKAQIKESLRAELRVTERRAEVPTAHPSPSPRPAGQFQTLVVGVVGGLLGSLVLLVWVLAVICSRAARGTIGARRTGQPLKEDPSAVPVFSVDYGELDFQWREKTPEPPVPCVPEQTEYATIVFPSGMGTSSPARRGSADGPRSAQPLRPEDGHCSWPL
row,SMILES,IC50 [µM]
1,Cc1cccc(C[C@@H]2NC(=O)[C@H](CC(=O)O)NC(=O)[C@H](Cc3ccc(C(=O)O)cc3)NC(=O)[C@H](Cc3ccc(OCC(=O)O)cc3)NC(=O)CSC[C@@H](C(=O)N[C@@H](C)C(N)=O)NC(=O)[C@H]([C@@H](C)O)NC(=O)[C@H](C(C)C)NC(=O)[C@H](CC(C)C)NC(=O)[C@H](CCN)NC(=O)[C@@H](CC(C)C)NC(=O)[C@H](CCCN)NC(=O)[C@H](CCCNC(N)=O)NC(=O)[C@H](Cc3ccc(-c4ccccc4)cc3)NC(=O)[C@H](C(C)C)NC2=O)c1 [Compound 1251] ({CH2CO}-Y(Carboxymethyl)[Phe(4-COOH)]D[Phe(3-Me)]V[Bip][Cit][Orn][dL][Dab]LVTCA-NH2; thioether N-14),0.0079
2,CCCC[C@@H]1NC(=O)CSC[C@@H](C(=O)N[C@@H](CCN)C(N)=O)NC(=O)[C@H](CO)NC(=O)[C@H](C(C)(C)O)NC(=O)[C@H](CC2CCCCC2)NC(=O)[C@H](CCN)NC(=O)[C@@H](CC(C)C)NC(=O)[C@H](CCCN)NC(=O)[C@H](Cc2ccc(C(=O)O)cc2)NC(=O)[C@H](Cc2ccc(-c3ccccc3)cc2)NC(=O)[C@H](Cc2ccc(C(=O)O)cc2)NC(=O)[C@H](Cc2cccc(C(F)(F)F)c2)NC(=O)[C@H](CC(N)=O)NC(=O)[C@H](Cc2ccc(C(=O)O)cc2)NC1=O [Example 2718] ({CH2CO}-[Nle][Phe(4-COOH)]N[Phe(3-CF3)][Phe(4-COOH)][Bip][Phe(4-COOH)][Orn][dL][Dab][Cha][Val(3-OH)]SC[Dab]-NH2; thioether N-14),0.33
3,CC(C)[C@@H]1NC(=O)[C@H](Cc2c[nH]c3ccccc23)NC(=O)[C@H](CC(=O)O)NC(=O)[C@H](Cc2ccncc2)NC(=O)[C@H](CN)NC(=O)CSC[C@@H](C(=O)N[C@@H](C)C(N)=O)NC(=O)[C@H]([C@@H](C)O)NC(=O)[C@H](C(C)C)NC(=O)[C@H](CC2CCCCC2)NC(=O)[C@H](CCN)NC(=O)[C@@H](CC2CCCCC2)NC(=O)[C@H](CCCN)NC(=O)[C@H](C(C)C)NC(=O)[C@H](Cc2ccc(-c3ccccc3)cc2)NC1=O [Compound 1638] ({CH2CO}-[Dap][4Pal]DWV[Bip]V[Orn][dCha][Dab][Cha]VTCA-NH2; thioether N-14),0.0286
4,Cc1cccc(C[C@@H]2NC(=O)[C@H](CC(=O)O)NC(=O)[C@H](Cc3ccc(OCC(=O)O)cc3)NC(=O)[C@H](Cc3ccccc3)NC(=O)CSC[C@@H](C(=O)N[C@@H](C)C(N)=O)NC(=O)[C@H](C(C)O)NC(=O)[C@H](C(C)C)NC(=O)[C@H](CC3CCCCC3)NC(=O)[C@H](CN)NC(=O)[C@@H](CC(C)C)NC(=O)[C@H](CCCN)NC(=O)[C@H](CCCNC(N)=O)NC(=O)[C@H](Cc3ccc(-c4ccccc4)cc3)NC(=O)[C@H](C(C)C)NC2=O)c1 (stereo partly drawn) [Compound 2500] ({CH2CO}-FY(Carboxymethyl)D[Phe(3-Me)]V[Bip][Cit][Orn][dL][Dap][Cha]V[Thr(3ξ)]CA-NH2; thioether N-14),0.01
5,CCC(C)[C@@H]1NC(=O)[C@H](Cc2ccc(-c3ccccc3)cc2)NC(=O)[C@H](C(C)C)NC(=O)[C@H](Cc2cccc(C)c2)NC(=O)[C@H](CC(=O)O)NC(=O)[C@H](Cc2ccc(C(=O)O)cc2)NC(=O)[C@H](Cc2ccncc2)NC(=O)CSC[C@@H](C(N)=O)NC(=O)[C@H]([C@@H](C)O)NC(=O)[C@H](C(C)(C)C)NC(=O)[C@H](CC2CCCCC2)NC(=O)[C@H](CCN)NC(=O)[C@@H](CC(C)C)NC(=O)[C@H](CCCN)NC1=O (stereo partly drawn) [Compound 2274] ({CH2CO}-[4Pal][Phe(4-COOH)]D[Phe(3-Me)]V[Bip][Ile(3ξ)][Orn][dL][Dab][Cha][Tle]TC-NH2; thioether N-14),0.0363
6,Cc1cccc(C[C@@H]2NC(=O)[C@H](CC(=O)O)NC(=O)[C@H](Cc3ccc(OCC(=O)O)cc3)NC(=O)[C@H](CN)NC(=O)CSC[C@@H](C(N)=O)NC(=O)[C@H]([C@@H](C)O)NC(=O)[C@H](C(C)C)NC(=O)[C@H](CC3CCCCC3)NC(=O)[C@H](CCN)NC(=O)[C@@H](CC(C)C)NC(=O)[C@H](CCCN)NC(=O)[C@H](Cc3ccc(OCC(=O)O)cc3)NC(=O)[C@H](Cc3ccc(-c4ccccc4)cc3)NC(=O)[C@H](Cc3ccc(OCC(=O)O)cc3)NC2=O)c1 [Compound 1783] ({CH2CO}-[Dap]Y(Carboxymethyl)D[Phe(3-Me)]Y(Carboxymethyl)[Bip]Y(Carboxymethyl)[Orn][dL][Dab][Cha]VTC-NH2; thioether N-14),0.0144
7,CC(C)C[C@@H]1NC(=O)[C@H](Cc2c[nH]c3ccccc23)NC(=O)[C@H](CC(=O)O)NC(=O)[C@H](Cc2ccc(O)cc2)NC(=O)[C@H](Cc2ccccc2)NC(=O)CSC[C@@H](C(=O)N[C@@H](C)C(N)=O)NC(=O)[C@H](CO)NC(=O)[C@H](C(C)C)NC(=O)[C@H](CC(C)C)NC(=O)[C@H](CC(N)=O)NC(=O)[C@@H](C)NC(=O)[C@@H](CCN)NC(=O)[C@H](C(C)C)NC(=O)[C@H](Cc2ccc(-c3ccccc3)cc2)NC1=O [Compound 2003] ({CH2CO}-FYDWL[Bip]V[dDab][dA]NLVSCA-NH2; thioether N-14),0.035
8,C#CC[C@H](NC(=O)CNC(=O)[C@@H]1CSCC(=O)N[C@@H](CN)C(=O)N[C@@H](Cc2ccc(OCC(=O)O)cc2)C(=O)N[C@@H](CC(=O)O)C(=O)N[C@@H](Cc2cccc(C)c2)C(=O)N[C@@H](C(C)C)C(=O)N[C@@H](Cc2ccc(-c3ccccc3)cc2)C(=O)N[C@@H](CCCNC(N)=O)C(=O)N[C@@H](CCCN)C(=O)N[C@H](CC(C)C)C(=O)N[C@@H](CCN)C(=O)N[C@@H](CC2CCCCC2)C(=O)N[C@@H](C(C)C)C(=O)N[C@@H]([C@@H](C)O)C(=O)N1)C(=O)O [Compound 2263] ({CH2CO}-[Dap]Y(Carboxymethyl)D[Phe(3-Me)]V[Bip][Cit][Orn][dL][Dab][Cha]VTCG[Pra]-OH; thioether N-14),0.0121
9,CC(C)C[C@H]1NC(=O)[C@H](CCCN)NC(=O)[C@H](CCCNC(N)=O)NC(=O)[C@H](Cc2ccc(-c3ccccc3)cc2)NC(=O)[C@H](C(C)C)NC(=O)[C@H](Cc2c[nH]c3ccccc23)NC(=O)[C@H](CC(=O)O)NC(=O)[C@H](Cc2ccc(OCC(=O)O)cc2)NC(=O)[C@H](CN)NC(=O)CSC[C@@H](C(=O)N[C@@H](C)C(N)=O)NC(=O)[C@H]([C@@H](C)O)NC(=O)[C@H](C(C)C)NC(=O)[C@H](CC2CC2)NC(=O)[C@H](CCN)NC1=O [Compound 1363],0.0345

# Next, values leading:
row,IC50 [µM],SMILES
1,0.0415,CC(C)C[C@@H]1NC(=O)[C@H](CCN)NC(=O)[C@@H](CC(C)C)NC(=O)[C@H](CCCCN)NC(=O)[C@H](C(C)C)NC(=O)[C@H](Cc2ccc(-c3ccccc3)cc2)NC(=O)[C@H](C(C)C)NC(=O)[C@H](Cc2c[nH]c3ccccc23)NC(=O)[C@H](CC(N)=O)NC(=O)[C@H](Cc2ccc(O)cc2)NC(=O)[C@H](CC(N)=O)NC(=O)CSC[C@@H](C(=O)NCC(N)=O)NC(=O)[C@H](CO)NC(=O)[C@H](C(C)C)NC1=O [Compound 1082] ({CH2CO}-NYNWV[Bip]VK[dL][Dab]LVSCG-NH2; thioether N-14)
2,0.0373,CC(C)C[C@@H]1NC(=O)[C@H](CCN)NC(=O)[C@@H](CC(C)C)NC(=O)[C@H](CN)NC(=O)[C@H](CCCNC(N)=O)NC(=O)[C@H](Cc2ccc(-c3ccccc3)cc2)NC(=O)[C@H](C(C)C)NC(=O)[C@H](Cc2c[nH]c3ccccc23)NC(=O)[C@H](CC(=O)O)NC(=O)[C@H](Cc2ccc(O)cc2)NC(=O)[C@H](CC(N)=O)NC(=O)CSC[C@@H](C(=O)N[C@@H](C)C(N)=O)NC(=O)[C@H]([C@@H](C)O)NC(=O)[C@H](C(C)C)NC1=O [Compound 1024] ({CH2CO}-NYDWV[Bip][Cit][Dap][dL][Dab]LVTCA-NH2; thioether N-14)
3,0.0328,CC(C)C[C@H]1NC(=O)[C@H](CCCN)NC(=O)[C@H](C(C)C)NC(=O)[C@H](Cc2ccc(-c3ccccc3)cc2)NC(=O)[C@H](C(C)C)NC(=O)[C@H](Cc2c[nH]c3ccccc23)NC(=O)[C@H](CC(=O)O)NC(=O)[C@H](Cc2ccc(C(=O)O)cc2)NC(=O)[C@H](Cc2ccc(OCC(=O)O)cc2)NC(=O)CSC[C@@H](C(=O)N[C@@H](C)C(N)=O)NC(=O)[C@H]([C@@H](C)O)NC(=O)[C@H](C(C)C)NC(=O)[C@H](CC2CCCCC2)NC(=O)[C@H](CCN)NC1=O [Compound 1691]
4,0.0181,CC(C)C[C@@H]1NC(=O)[C@H](Cc2c[nH]c3ccccc23)NC(=O)[C@H](CC(=O)O)NC(=O)[C@H](Cc2ccc(O)cc2)NC(=O)[C@H](Cc2ccccc2)NC(=O)CSC[C@@H](C(=O)N[C@@H](C)C(N)=O)NC(=O)[C@H]([C@@H](C)O)NC(=O)[C@H](C(C)C)NC(=O)[C@H](CC(C)C)NC(=O)[C@H](CC(N)=O)NC(=O)[C@@H](CC(C)C)NC(=O)[C@H](CCN)NC(=O)[C@H](C(C)C)NC(=O)[C@H](Cc2ccc(-c3ccccc3)cc2)NC1=O [Compound 1058] ({CH2CO}-FYDWL[Bip]V[Dab][dL]NLVTCA-NH2; thioether N-14)
5,0.0161,CC(C)C[C@H]1NC(=O)[C@H](CCCN)NC(=O)[C@H](CCCNC(N)=O)NC(=O)[C@H](Cc2ccc(-c3ccccc3)cc2)NC(=O)[C@H](C(C)C)NC(=O)[C@H](Cc2c[nH]c3ccccc23)NC(=O)[C@H](CC(=O)O)NC(=O)[C@H](Cc2ccc(OCC(=O)O)cc2)NC(=O)[C@H](CCN)NC(=O)CSC[C@@H](C(=O)N[C@@H](CCN)C(N)=O)NC(=O)[C@H](C(C)O)NC(=O)[C@H](C(C)C)NC(=O)[C@H](CC2CCCCC2)NC(=O)[C@H](CCN)NC1=O (stereo partly drawn) [Compound 2638] ({CH2CO}-[Dab]Y(Carboxymethyl)DWV[Bip][Cit][Orn][dL][Dab][Cha]V[Thr(3ξ)]C[Dab]-NH2; thioether N-14)

# Same assay, conditions: read-out: Jurkat HPD1_PDL1 IC50; Jurkat-PD-1 cells, PE-labeled PD-L1-Ig 20 nM final
row,SMILES,IC50 [µM]
1,CCC(C)[C@@H]1NC(=O)[C@H](Cc2ccc(-c3ccccc3)cc2)NC(=O)[C@H](CO)NC(=O)[C@H](Cc2c[nH]c3ccccc23)NC(=O)[C@H](CC(=O)O)NC(=O)[C@H](Cc2ccc(OCC(=O)O)cc2)NC(=O)[C@H](C(C)O)NC(=O)CSC[C@@H](C(=O)N[C@@H](CC(N)=O)C(=O)O)NC(=O)[C@H](CO)NC(=O)[C@H](C(C)C)NC(=O)[C@H](CC(C)C)NC(=O)[C@H](CCN)NC(=O)[C@@H](CC(C)C)NC(=O)[C@H](CCCN)NC1=O (stereo partly drawn) [Compound 2581] ({CH2CO}-[Thr(3ξ)]Y(Carboxymethyl)DWS[Bip][Ile(3ξ)][Orn][dL][Dab]LVSCN-OH; thioether N-14),0.472
